Measurements taken from patent US20220289698A1, “INHIBITORS OF HUMAN ATGL” (Karl-Franzens-Universität Graz, priority 2019, published 2022).
Where two headings read alike, the source gives them in different places.

Assays:
human ATGL = molecular target: T1, human ATGL (Homo sapiens, UniProt Q96AD5); assay: TG hydrolase activity, Expi cell lysates expressing human ATGL + CGI-58, radiolabelled triolein; format: biochemical
T1 construct: made in house; host or cells: Expi cells (lysate, not purified)
T1 sequence (Q96AD5 1-504): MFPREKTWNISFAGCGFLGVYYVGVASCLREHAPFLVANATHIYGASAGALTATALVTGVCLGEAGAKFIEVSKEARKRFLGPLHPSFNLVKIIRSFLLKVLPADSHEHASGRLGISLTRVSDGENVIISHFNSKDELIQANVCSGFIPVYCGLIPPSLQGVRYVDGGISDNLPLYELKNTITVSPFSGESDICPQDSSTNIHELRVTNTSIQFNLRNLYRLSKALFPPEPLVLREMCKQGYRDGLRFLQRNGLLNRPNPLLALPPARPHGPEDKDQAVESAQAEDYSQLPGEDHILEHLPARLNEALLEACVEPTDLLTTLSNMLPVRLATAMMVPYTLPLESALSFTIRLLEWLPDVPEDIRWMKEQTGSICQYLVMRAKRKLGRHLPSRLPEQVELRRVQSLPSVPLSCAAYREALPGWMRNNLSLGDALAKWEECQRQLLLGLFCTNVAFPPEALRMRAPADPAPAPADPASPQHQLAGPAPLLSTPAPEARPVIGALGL
Procedure: (§1) Triglyceride (TG) hydrolase activity was measured as previously described (Schweiger M et al., Methods in Enzymology, 2014, 538:171-93). In brief, TG hydrolase activity was determined by adding recombinant purified CGI-58 to Expi cell lysates expressing human ATGL. For determination of cross-species reactivity Expi lysates expressing ATGL from different model organisms (e.g. mouse, rat, rhesus monkey, goat, etc.) were used. Samples were incubated with DMSO (carrier) or increasing concentrations of ATGL inhibitors dissolved in DMSO. TG substrate was prepared by emulsifying 330 μM radiolabelled triolein (40,000 c.p.m./nmol) and 45 μM phosphatidylcholine/phosphatidylinositol (3:1) in 100 mM potassium phosphate buffer (pH 7.0) by sonication and adjusting to 5% essentially FA-free BSA. TG substrate was added to the reaction mixture and incubated for 1 h at 37° C. in the water bath. The reaction was terminated by adding methanol/chloroform/heptane (10:9:7) and 0.1 M potassium carbonate with 0.1 M boric acid (pH 10.5). After centrifugation at 800 g for 15 min the radioactivity in the upper phase was determined by liquid scintillation counting and the rate of FA hydrolysis was calculated. IC50 values were determined as inhibitor concentration capable of inhibiting TG hydrolase activity by 50% as compared to DMSO control. Samples were measured as duplicates. The determination of IC50 values for human ATGL is illustrated in FIG. 1.

murine ATGL = molecular target: T2, murine ATGL (Mus musculus, UniProt Q8BJ56); assay: TG hydrolase activity, Expi lysates expressing mouse ATGL + CGI-58, radiolabelled triolein; format: biochemical
T2 construct: made in house; host or cells: Expi cells (lysate)
T2 sequence (Q8BJ56 1-486): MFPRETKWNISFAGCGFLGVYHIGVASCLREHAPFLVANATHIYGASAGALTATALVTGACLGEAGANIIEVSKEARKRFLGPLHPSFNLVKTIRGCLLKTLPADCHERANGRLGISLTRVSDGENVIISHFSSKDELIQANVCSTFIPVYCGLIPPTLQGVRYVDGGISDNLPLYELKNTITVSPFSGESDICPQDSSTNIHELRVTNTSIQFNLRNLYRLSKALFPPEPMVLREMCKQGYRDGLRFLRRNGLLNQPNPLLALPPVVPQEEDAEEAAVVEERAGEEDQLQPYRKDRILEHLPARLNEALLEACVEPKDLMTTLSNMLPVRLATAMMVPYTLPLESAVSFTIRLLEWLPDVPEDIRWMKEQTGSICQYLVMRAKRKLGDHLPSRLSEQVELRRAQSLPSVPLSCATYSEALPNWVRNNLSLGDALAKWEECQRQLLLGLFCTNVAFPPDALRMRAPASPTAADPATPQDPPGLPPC
Procedure: as §1
Lysates from Expi cells overexpressing ATGL from mouse (Mus musculus) were incubated with recombinant purified ATGL co-activator CGI-58 and ATGL inhibitors at 50 μM. Subsequently, substrate containing radiolabeled triolein was added and liberated FA were extracted and quantified by liquid scintillation. Inhibitors were dissolved in DMSO which was used as control. Samples were measured in triplicates.

[1] = Example 237, read-out: Inhibition of human ATGL − IC50
[2] = 50 μM compound, Example 237, read-out: Inhibition of murine ATGL at 50 μM − mean [%]
[3] = Example 238, read-out: Inhibition of human ATGL IC50
[4] = 50 μM, Example 238, read-out: % Inhibition of murine ATGL at 50 μM

| SMILES | IC50 (human ATGL; [1]) [µM] | inhibition at 50 µM (murine ATGL; [2]) [%] | IC50 (human ATGL; [3]) [µM] | inhibition at 50 µM (murine ATGL; [4]) [%] | inhibition at 50 µM (murine ATGL; 50 μM, overview table, read-out: mouse ATGL inhibition [% inhibition at 50 μM]) [%] |
| --- | --- | --- | --- | --- | --- |
| CCOc1ccc(-c2nc(C(=O)OC3CCOC3)cs2)cc1 (stereo not shown) [Example 130, Tetrahydrofuran-3-yl 2-(4-ethoxyphenyl)thiazole-4-carboxylate] | 3 | 13.9 |  |  |  |
| CCCC(C)OC(=O)c1csc(-c2ccc(OCC)cc2)n1 (stereo not shown) [Example 117, Pentan-2-yl 2-(4-ethoxyphenyl)thiazole-4-carboxylate] | 3 | 7.4 |  |  |  |
| CCOc1ccc(-c2nc(C(=O)OC(C)(C)CC)cs2)cc1 [Example 118, tert-Pentyl 2-(4-ethoxyphenyl)thiazole-4-carboxylate] | 25 | 0 |  |  |  |
| CCCCCCOc1ccc(-c2nc(C(=O)OCC)cs2)cc1 [Example 111, Ethyl 2-(4-(hexyloxy)phenyl)thiazole-4-carboxylate] | 25 | 0 |  |  |  |
| CCOC(=O)c1csc(-c2ccc(OC(C)CC)cc2)n1 (stereo not shown) [Example 112, Ethyl 2-(4-(sec-butoxy)phenyl)thiazole-4-carboxylate] | 10 | 1.3 |  |  |  |
| CC(C)OC(=O)c1cccc(-c2ccccc2)n1 [Example 24] | 25 | 38 |  |  |  |
| CCOc1ccc(-c2nc(C(=O)OC3CCCCC3)cs2)cc1 [Example 133, Cyclohexyl 2-(4-ethoxyphenyl)thiazole-4-carboxylate] | 25 | 0 |  |  |  |
| CCOc1ccc(-c2nc(C(=O)OC)cs2)cc1 [Example 122, Methyl 2-(4-ethoxyphenyl) thiazole-4-carboxylate] | 8 | 2.1 |  |  |  |
| C=CCOc1ccc(-c2nc(C(=O)OCC)cs2)cc1 [Example 113, Ethyl 2-(4-(allyloxy)phenyl)thiazole-4-carboxylate] | 6 | 24.6 |  |  |  |
| CCOc1ccc(-c2nc(C(=O)OCC(F)(F)F)cs2)cc1 [Example 116, 2,2,2-Trifluoroethyl 2-(4-ethoxyphenyl)thiazole-4-carboxylate] | 12 | 0 |  |  |  |
| CCOc1ccc(-c2nc(C(=O)OCC3CC3)cs2)cc1 [Example 136, Cyclopropylmethyl 2-(4-ethoxyphenyl)thiazole-4-carboxylate] | 20 | 9.8 |  |  |  |
| CCC(C)c1ccc(-c2cc(OC)cc(C(=O)OC(C)C)n2)cc1 (stereo not shown) [Example 56] | 7 | 0 |  |  |  |
| CCOc1ccc(-c2nc(C(=O)OCc3cncs3)cs2)cc1 [Example 217, Thiazol-5-ylmethyl-2-(4-ethoxyphenyl)thiazole-4-carboxylate] |  |  | 20 | 77 |  |
| CCOC(=O)c1csc(-c2ccc(OCC(C)C)cc2)n1 [Example 104, Ethyl 2-(4-isobutoxyphenyl)thiazole-4-carboxylate] | 12 | 0 |  |  |  |
| C#CCC(C)OC(=O)c1csc(-c2ccc(OCC)cc2)n1 (stereo not shown) [Example 208, Pont-4-yn-2-yl 2-(4-ethoxyphenyl)thiazole-4-carboxylate] |  |  | 10 | 59 |  |
| CCOc1ccc(-c2nc(C(=O)OCC=C(C)C)cs2)cc1 [Example 143, 3-Methylbut-2-en-1-yl 2-(4-ethoxyphenyl)thiazole-4-carboxylate] | 20 | 16.8 |  |  |  |
| CCOC(=O)c1csc(-c2ccc(OCC(F)(F)F)cc2)n1 [Example 108, Ethyl 2-(4-(2,2,2-trifluoroethoxy)phenyl)thiazole-4-carboxylate] | 5 | 8 |  |  |  |
| C=CCOC(=O)c1csc(-c2ccc(OCC)cc2)n1 [Example 147, Allyl 2-(4-ethoxyphenyl)thiazole-4-carboxylate] | 3 | 30 |  |  |  |

| SMILES | IC50 (human ATGL; [1]) [µM] | inhibition at 50 µM (murine ATGL; [2]) [%] | IC50 (human ATGL; [3]) [µM] | inhibition at 50 µM (murine ATGL; [4]) [%] | inhibition at 50 µM (murine ATGL; 50 μM, overview table, read-out: mouse ATGL inhibition [% inhibition at 50 μM]) [%] |
| --- | --- | --- | --- | --- | --- |
| CCOC(=O)c1csc(-c2ccc(SCC)cc2)n1 [Example 98, Ethyl 2-(4-(ethylthio)phenyl)thiazole-4-carboxylate] | 12 | 0 |  |  |  |
| CCOc1ccc(-c2nc(C(=O)OC(C)(C)C)cs2)cc1 [Example 150, tert-Butyl 2-(4-ethoxyphenyl)thiazole-4-carboxylate] | 5 | 6.3 |  |  |  |
| CCOc1ccc(-c2nc(C(=O)O[C@H]3CCC[C@H]3C)cs2)cc1 [Example 139, (1S,2R)-2-Methylcyclopentyl 2-(4-ethoxyphenyl)thiazole-4-carboxylate] | 15 | 0 |  |  |  |
| CC(C)OC(=O)c1cccc(-c2ccc(F)cc2)n1 [Example 25] | 8 | 10.9 |  |  |  |
| CCOc1ccc(-c2nc(C(=O)OC(CF)CF)cs2)cc1 [Example 135, 1,3-Difluoropropan-2-yl 2-(4-ethoxyphenyl)thiazole-4-carboxylate] | 3 | 5.8 |  |  |  |
| CCOC(=O)c1nc(-c2ccc(OCC)cc2)sc1OC [Example 126, Ethyl 2-(4-ethoxyphenyl)-5-methoxythiazole-4-carboxylate] | 5 | 2.2 |  |  |  |
| CCOc1ccc(-c2nc(C(=O)OCc3ccco3)cs2)cc1 [Example 153, Furan-2-ylmethyl 2-(4-ethoxyphenyl)thiazole-4-carboxylate] | 5 | 42.2 |  |  |  |
| CC(C)OC(=O)c1cccc(CCc2ccccc2)n1 [Example 80] | 50 | 3.4 |  |  |  |
| CCOc1ccc(-c2nc(C(=O)OC3CCC3)cs2)cc1 [Example 129, Cyclobutyl 2-(4-ethoxyphenyl)thiazole-4-carboxylate] | 6 | 5.1 |  |  |  |
| CC(C)OC(=O)c1cccc(-c2ccc(C(=O)N(C)C)cc2)n1 [Example 42] | 10 | 6.2 |  |  |  |
| CC(C)OC(=O)c1cccc(-c2ccc(OC(C)C)cc2)n1 [Example 95] | 3 | 13.1 |  |  |  |
| C#CC(C)OC(=O)c1cc(OC)cc(-c2ccc(CCC)cc2)n1 (stereo not shown) [Example 54] | 20 | 0 |  |  |  |
| CCCCCOc1ccc(-c2nc(C(=O)OCC)cs2)cc1 [Example 110, Ethyl 2-(4-(pentyloxy)phenyl)thiazole-4-carboxylate] | 25 | 0 |  |  |  |
| CCOc1ccc(-c2nc(C(=O)OC(C)C)cs2)cc1 [Example 123, Isopropyl 2-(4-ethoxyphenyl) thiazole-4-carboxylate] | 3 | 10.6 |  |  | 20 |
| CON(C)C(=O)c1ccc(-c2cccc(C(=O)OC(C)C)n2)cc1 [Example 77] | 5 | 0 |  |  |  |
| CCOC(=O)c1csc(-c2ccc(SC)cc2)n1 [Example 99, Ethyl 2-(4-(methylthio)phenyl)thiazole-4-carboxylate] | 12 | 37.3 |  |  |  |
| CCOC(=O)c1nc(-c2ccc(OCC)cc2)sc1Cl [Example 125, Ethyl 5-chloro-2-(4-ethoxyphenyl)thiazole-4-carboxylate] | 25 | 11.1 |  |  |  |
| CCOC(=O)c1csc(-c2ccc(OC(C)C)cc2)n1 [Example 106, Ethyl 2-(4-isopropoxyphenyl)thiazole-4-carboxylate] | 5 | 21.6 |  |  |  |
